Patent publication US8633183B2 (priority 2010, dated 2014)

Target: PI3Kalpha (Homo sapiens (Human), UniProt P42336)
Details: read-out: IC50 PI3K
Method: Plot the concentration of each compound versus the emission ratio. […] Determination of IC50 values can be obtained by curve fitting (sigmoidal dose response, variable slope) using Prism software from GraphPad).
Method Type: Filter-Binding-Assay
Compounds are serially diluted in assay buffer+6% DMSO and 10 μl of each dilution is added per well of a 96-well plate (compounds are tested in duplicates) and mixed with 30 μl of the lipid vesicles containing PDGFR-Peptide (0.5 μM final) and PI3K alpha (25 ng/well final). The mixture is then incubated for 20 minutes at room temperature. Subsequently, 20 μl of assay buffer containing 3 μM cold ATP and 0.5 μCi/20 μl 33P-ATP are added. The plates are then incubated at room temperature for 120 minutes (shaking with 300 rpm). The reaction mix is transferred onto filter plates using “filtermate harvester” from Packard: filter plates are rinsed with PBS, then the reaction mix is filtered onto the filter plate, washed 5 times with PBS and are allowed to dry for 30-60 minutes at 50° C.
As positive control serve wells containing vehicle controls (1% DMSO in assay buffer), showing non-inhibited kinase activity (high values). Wells containing assay buffer instead of enzyme can serve as control for background activity (low values).
Calculate IC50 values using the Smiley program (based on GrapPad Prism)

Sequence of PI3Kalpha (P42336 whole entry, looked up): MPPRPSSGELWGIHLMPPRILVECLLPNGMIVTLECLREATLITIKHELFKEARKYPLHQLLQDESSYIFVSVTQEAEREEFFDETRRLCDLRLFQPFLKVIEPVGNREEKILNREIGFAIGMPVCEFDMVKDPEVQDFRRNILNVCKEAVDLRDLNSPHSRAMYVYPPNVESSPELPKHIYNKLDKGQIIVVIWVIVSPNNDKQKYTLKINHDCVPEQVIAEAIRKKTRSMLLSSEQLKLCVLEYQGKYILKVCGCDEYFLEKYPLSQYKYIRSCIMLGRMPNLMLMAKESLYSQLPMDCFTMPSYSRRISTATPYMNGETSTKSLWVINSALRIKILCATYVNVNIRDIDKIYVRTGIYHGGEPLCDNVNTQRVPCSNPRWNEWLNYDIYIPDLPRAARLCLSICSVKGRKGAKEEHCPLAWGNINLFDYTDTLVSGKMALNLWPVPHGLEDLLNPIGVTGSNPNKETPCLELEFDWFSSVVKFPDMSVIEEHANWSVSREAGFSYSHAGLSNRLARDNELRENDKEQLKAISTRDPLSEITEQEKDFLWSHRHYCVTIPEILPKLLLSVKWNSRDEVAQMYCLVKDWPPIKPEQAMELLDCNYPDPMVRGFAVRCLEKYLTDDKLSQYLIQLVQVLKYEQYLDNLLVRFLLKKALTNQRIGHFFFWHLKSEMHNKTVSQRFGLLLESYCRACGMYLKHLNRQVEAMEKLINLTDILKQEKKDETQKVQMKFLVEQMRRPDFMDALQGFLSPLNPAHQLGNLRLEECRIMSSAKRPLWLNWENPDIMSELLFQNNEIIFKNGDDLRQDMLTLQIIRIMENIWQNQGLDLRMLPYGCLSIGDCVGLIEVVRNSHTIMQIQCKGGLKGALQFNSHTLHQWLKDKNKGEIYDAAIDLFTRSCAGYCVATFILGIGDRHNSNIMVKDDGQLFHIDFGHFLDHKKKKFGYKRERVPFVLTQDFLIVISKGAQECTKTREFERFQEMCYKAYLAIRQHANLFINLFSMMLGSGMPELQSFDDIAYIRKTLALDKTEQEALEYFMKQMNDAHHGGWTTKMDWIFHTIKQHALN

Structure (SMILES)	IC50 [nM]
CCc1ncnc(-c2ccc(C(=O)N3CC[C@H](N(C)C)C3)c(Cl)c2)c1C#Cc1ccc(NC)nc1 [Example E-190]	175
CCc1ncnc(-c2ccc(C(=O)N3CCC(C)(O)CC3)c(Cl)c2)c1C#Cc1ccc(N)nc1 [Example D-143]	77
CCc1ncnc(-c2cc(Cl)c(C(=O)N3CCC(C(C)(C)O)CC3)c(Cl)c2)c1C#Cc1ccc(N)nc1 [Example E-201]	98.1
Cc1ncnc(-c2cnc3ccccc3c2)c1C#Cc1ccc(N)nc1 [Example C-22]	30
Cc1ncnc(-c2ccc(N3CCCCC3)nc2)c1C#Cc1ccc(N)nc1 [Example C-25]	64
CCc1ncnc(-c2ccc(C(=O)N3CCN(Cc4ccccc4)CC3)c(Cl)c2)c1C#Cc1ccc(N)nc1 [Example D-160]	658
CCc1ncnc(-c2ccc(C(=O)NCC3(C)COC3)c(Cl)c2)c1C#Cc1ccc(N)nc1 [Example D-159]	66
CCc1ncnc(-c2ccc(C(=O)N3CCCC(O)C3)c(Cl)c2)c1C#Cc1ccc(N)nc1 [Example D-147]	65
CCc1ncnc(-c2ccc(C(=O)N3CC[C@H](O)C3)c(Cl)c2)c1C#Cc1ccc(N)nc1 [Example D-145]	58
CCc1ncnc(-c2ccc(C(=O)N3CCCC(O)C3)c(OC)c2)c1C#Cc1ccc(N)nc1 (stereo not drawn) [Example E-46]	104
CCc1ncnc(-c2ccc(C(=O)N3CCN4CCCCC4C3)c(OC)c2)c1C#Cc1ccc(N)nc1 (stereo not drawn) [Example E-57]	280
CCc1ncnc(-c2ccc(C(=O)N3CCn4c(C)cnc4C3)c(Cl)c2)c1C#Cc1ccc(N)nc1 [Example E-254]	31.6
CCc1ncnc(-c2ccc(C(=O)N(C)O)c(F)c2)c1C#Cc1ccc(N)nc1 [Example D-68]	42
CCc1ncnc(-c2ccc(C(=O)N3CCC(C)(O)CC3)c(Cl)c2)c1C#Cc1ccc(N)nc1 [Example E-25]	76.8
CCc1ncnc(-c2ccc(C(=O)N(C)CCO)c(Cl)c2)c1C#Cc1ccc(N)nc1 [Example D-34]	36
CCc1ncnc(-c2ccc(C(=O)NC3CCN(C)CC3)c(F)c2)c1C#Cc1ccc(N)nc1 [Example D-65]	436
CCc1ncnc(-c2cnc3ccccc3c2)c1C#Cc1ccc(N)nc1 [Example C-29]	24
CCc1ncnc(-c2ccc(C(=O)N3CCN(CC4CC4)CC3)c(Cl)c2)c1C#Cc1ccc(N)nc1 [Example E-18]	228
CCc1ncnc(-c2ccc(C(=O)N3CCN(CC4CCCCC4)CC3)c(OC)c2)c1C#Cc1ccc(N)nc1 [Example E-67]	3050
CCNc1ccc(C#Cc2c(CC)ncnc2-c2ccc(C(=O)N3CCn4cnnc4C3)c(F)c2)cn1 [Example E-261]	44.3
C#CCN1CCN(C(=O)c2ccc(-c3ncnc(CC)c3C#Cc3ccc(N)nc3)cc2F)CC1 [Example E-165]	178
CCc1ncnc(-c2ccc(C(=O)N(C)CCCO)c(F)c2)c1C#Cc1ccc(N)nc1 [Example D-4]	58
CCc1ncnc(-c2cc(F)c(C(=O)N3CCC(CO)CC3)c(Cl)c2)c1C#Cc1ccc(N)nc1 [Example E-242]	120
CCc1ncnc(-c2ccc(C(=O)N(C)C3CCS(=O)(=O)C3)c(Cl)c2)c1C#Cc1ccc(N)nc1 (stereo not drawn) [Example E-80]	48.2
CCc1ncnc(-c2ccc(C(=O)N3CCN(C)CC3)c(F)c2)c1C#Cc1ccc(N)nc1 [Example D-8]	215
CCc1ncnc(-c2ccc(C(=O)N3CCC(N(C)C)CC3)c(OC)c2)c1C#Cc1ccc(N)nc1 [Example E-59]	294
CCc1ncnc(-c2ccc(C(=O)N3CCN(C(C)=O)CC3)c(F)c2)c1C#Cc1ccc(N)nc1 [Example D-90]	62
CCc1ncnc(-c2ccc(Cl)c(C(=O)N3CCCCC3)c2)c1C#Cc1ccc(N)nc1 [Example C-48]	596
CCOC(=O)N1CCN(C(=O)c2ccc(-c3ncnc(CC)c3C#Cc3ccc(N)nc3)cc2C)CC1 [Example E-107]	62.9
CCc1ncnc(-c2ccc(C(=O)N3CCC(N4CCN(C)CC4)CC3)c(Cl)c2)c1C#Cc1ccc(NC)nc1 [Example E-192]	334
